Assay [1] has as its system HCT116 cells. Nature of the assay: Inhibition of proliferation of the human colon tumor line HCT116 ([14C]-thymidine incorporation). Type of assay: cell-based. To be noted: 48 hours at 37° C., read-out: Inhibition of HCT116 proliferation IC 50 (μm). Here is the method:
The proliferation of HCT116 cells is evaluated by measuring the incorporation of [^14C]-thymidine in the following manner. The HCT 116 cells (obtained from the ATCC) are cultured in a DMEM medium (Gibco) containing 10% fetal calf serum and antibiotics (1% penicillin, 1% streptomycin). To perform the proliferation test, the cells are inoculated in cytostar 96-well microplates (Amersham), at a rate of 5000 cells per well. [^14C]-thymidine (0.1 μCi/well) and the products to be evaluated are then added. Variable concentrations of products up to 10 μm are used; the DMSO (solvent used to dissolve the products) should not exceed 0.5% in the medium. 48 hours after incubation at 37° C., the radioactivity incorporated into the cells is measured by counting the plate in a TRI-LUX counter (Wallac). The IC50 is defined as the concentration of product that reduces the radioactivity by 50% compared with an untreated control. A product whose IC50 is less than 3 μm is considered cytotoxic.
(Uptake of a labelled nucleoside into DNA is a usual measure of proliferation.)

The target in assay [2] is T1, tubulin (Sus scrofa, UniProt P02550+P02554).
T1 construct: Tubulin is purified from pig brain according to published methods; from tissue; host or cells: pig brain
T1 sequence (P02550 whole entry): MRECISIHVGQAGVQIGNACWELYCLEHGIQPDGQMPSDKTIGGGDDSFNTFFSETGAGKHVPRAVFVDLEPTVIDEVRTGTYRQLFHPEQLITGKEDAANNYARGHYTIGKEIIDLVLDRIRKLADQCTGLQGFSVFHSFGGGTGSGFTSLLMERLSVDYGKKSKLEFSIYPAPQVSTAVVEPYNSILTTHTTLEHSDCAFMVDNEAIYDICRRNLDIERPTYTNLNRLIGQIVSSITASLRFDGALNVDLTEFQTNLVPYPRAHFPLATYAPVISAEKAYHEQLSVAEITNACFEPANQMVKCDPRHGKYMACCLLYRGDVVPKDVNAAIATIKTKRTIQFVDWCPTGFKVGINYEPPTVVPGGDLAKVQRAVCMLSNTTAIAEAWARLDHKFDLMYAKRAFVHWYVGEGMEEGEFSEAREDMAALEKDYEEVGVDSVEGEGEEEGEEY
T1 sequence (P02554 whole entry): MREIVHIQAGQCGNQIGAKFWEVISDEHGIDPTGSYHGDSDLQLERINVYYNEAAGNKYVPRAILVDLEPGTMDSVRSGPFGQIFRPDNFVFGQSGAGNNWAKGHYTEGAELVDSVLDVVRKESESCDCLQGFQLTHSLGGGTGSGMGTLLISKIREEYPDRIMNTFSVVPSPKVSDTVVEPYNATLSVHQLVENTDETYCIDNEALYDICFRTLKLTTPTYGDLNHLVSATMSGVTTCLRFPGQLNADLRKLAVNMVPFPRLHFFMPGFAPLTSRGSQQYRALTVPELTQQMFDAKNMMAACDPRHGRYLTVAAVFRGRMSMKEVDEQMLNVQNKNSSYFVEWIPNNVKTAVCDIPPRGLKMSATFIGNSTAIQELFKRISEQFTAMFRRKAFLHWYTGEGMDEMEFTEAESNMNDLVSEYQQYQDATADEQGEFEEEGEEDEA
Nature of the assay: Evaluation of the inhibition of tubulin polymerization (turbidimetry). In kind it is biochemical, pig. To be noted: tubulin 10 μm (1 mg/ml), 37° C., turbidity at 350 nm; concentration that inhibits the rate of polymerization by 50%; read-out: Inhibition of tubulin polymerization IC 50 (μm). The procedure:
Tubulin is purified from pig brain according to published methods (Shelanski et al., 1973, Proc. Natl. Acad. Sci. USA, 70, 765-768. Weingarten et al., 1975, Proc. Natl. Acad. Sci. USA, 72, 1858-1862). Briefly, the brains are ground and centrifuged in an extraction buffer. The tubulin contained in the supernatant of the extract undergoes two successive cycles of polymerization at 37° C. and depolymerization at 4° C., before being separated from the MAPs (Microtubule Associated Proteins) by chromatography on a phosphocellulose P11 column (Whatman). The tubulin thus isolated is more than 95% pure. It is stored in a buffer known as RB/2 30% glycerol, the composition of which is 50 mM MES-NaOH [2-(N-morpholino)ethanesulfonic acid], pH 6.8; 0.25 mM MgCl2; 0.5 mM EGTA; 30% glycerol (v/v), 0.2 mM GTP (guanosine-5′-triphosphate).
The polymerization of tubulin to microtubules is monitored by turbidimetry as follows: the tubulin is adjusted to a concentration of 10 μm (1 mg/ml) in RB/2 30% glycerol buffer to which 1 mM GTP and 6 mM MgCl2 are added. The polymerization is triggered by an increase in temperature from 6° C. to 37° C. in a cuvette with an optical path length of 1 cm, placed in a UVIKON 931 spectrophotometer (Kontron) equipped with a thermostatically maintained cuvette holder. The increase in the turbidity of the solution is monitored at 350 nm.
The products are dissolved at 10 mM in DMSO and added at variable concentrations (0.5 to 10 μm) to the tubulin solution before polymerization. The IC50 value is defined as the concentration of product that inhibits the rate of polymerization by 50%.

Structures can show the parent of a compound that is named as a salt. Where two headings read alike, the source gives them in different places.

For the molecule `Cc1cc(C(=O)N2CCN(c3cccc(C)c3C)CC2)n(-c2ccccc2F)n1` [3/141], the IC50 in assay [1] (Homo sapiens, HCT-116, 48 h) came out at 66 nM; in assay [2] it was 7000 nM.

Consider `O=C(c1cc(CO)nn1-c1ccccc1)N1CCN(c2cccc(Cl)c2)CC1` [Example E60, (5-Hydroxymethyl-2-phenyl-2H-pyrazol-3-yl)[4-(3-chlorophenyl)piperazin-1l-yl]methanone], for which the IC50 in assay [1] (Homo sapiens, HCT-116, 48 h) came out at 11.7 nM; in assay [2], 1370 nM.

With `Cc1cc(C(=O)N2CCN(c3cccnc3)CC2)n(-c2ccccc2)n1` [3/153], the IC50 in assay [1] (Homo sapiens, HCT-116, 48 h) turned out to be 22.4 nM; in assay [2], 2200 nM.

Take `COc1cc(OC)cc(N2CCN(C(=O)c3cc(-c4ccc(C(F)(F)F)cc4)nn3-c3ccccc3)CC2)c1` [Example E89, [4-(3,5-Dimethoxyphenyl)piperazin-1-yl][2-phenyl-5-(4-trifluoromethylphenyl)-2H-pyrazol-3-yl]methanone]: the IC50 was 1100 nM in assay [1] (Homo sapiens, HCT-116, 48 h) and 3420 nM in assay [2].

`O=C(c1ccnn1-c1ccccc1)N1CCN(c2cccc(Cl)c2)CC1` [Example 5, [4-(3-Chlorophenyl)piperazin-1-yl](2-phenyl-2H-pyrazol-3-yl)methanone]: the IC50 in assay [1] (Homo sapiens, HCT-116, 48 h) was found to be 4.1 nM; in assay [2], 1200 nM.

Consider `COc1cccc(-n2nc(C)cc2C(=O)N2CCN(c3cc(Cl)ccc3C)CC2)c1` [3/4], for which the IC50 was 389 nM in assay [1] (Homo sapiens, HCT-116, 48 h) and 1800 nM in assay [2].

Turning to `O=C(c1cc(OCc2ccccc2)nn1-c1ccccn1)N1CCN(c2cccc(Cl)c2)CC1` [Example E61, (5-Benzyloxy-2-pyrid-2-yl-2H-pyrazol-3-yl)[4-(3-chlorophenyl)piperazin-1-yl]methanone], the IC50 in assay [1] (Homo sapiens, HCT-116, 48 h) turned out to be 6090 nM; in assay [2], 2300 nM.

For the molecule `Cc1cc(C(=O)N2CCN(c3cccc(O)c3)CC2)n(-c2ccccc2)n1` [Example E13, [4-(3-Hydroxyphenyl)piperazin-1-yl](5-methyl-2-phenyl-2H-pyrazol-3-yl)-methanone], the IC50 in assay [1] (Homo sapiens, HCT-116, 48 h) is 14.2 nM; in assay [2], 1000 nM.

For `Cc1cc(C(=O)N2CCN(c3ccc(F)cc3)CC2)n(-c2cccc(F)c2)n1` [3/92], the IC50 in assay [1] (Homo sapiens, HCT-116, 48 h) was 158 nM; in assay [2], 12500 nM.

`COc1ccccc1N1CCN(C(=O)c2cc(C)nn2-c2cccc(Cl)c2)CC1` [3/120]: the IC50 in assay [1] (Homo sapiens, HCT-116, 48 h) turned out to be 40 nM.

On to `CCOc1ccccc1N1CCN(C(=O)c2cc(C)nn2-c2cccc(Cl)c2)CC1` [3/71], for which the IC50 in assay [1] (Homo sapiens, HCT-116, 48 h) was 220 nM; in assay [2], 2500 nM.

In the case of `Cc1cccc(N2CCN(C(=O)c3cc(C)nn3-c3ccccc3)CC2)n1` [3/150], the IC50 in assay [1] (Homo sapiens, HCT-116, 48 h) is 5.5 nM; in assay [2] it was 1100 nM.

`CC(=O)Nc1cccc(N2CCN(C(=O)c3cc(C)nn3-c3ccccc3)CC2)c1` [Example E18, N-{3-[4-(5-methyl-2-phenyl-2H-pyrazole-3-carbonyl)piperazin-1-yl]phenyl}-acetamide]: the IC50 in assay [1] (Homo sapiens, HCT-116, 48 h) was determined as 59.5 nM; in assay [2], 1200 nM.

Turning to `COc1cc(OC)cc(N2CCN(C(=O)c3cccn3-c3ccccc3)CC2)c1` [Example E51, [4-(3,5-Dimethoxyphenyl)piperazin-1-yl](1-phenyl-1H-pyrrol-2-yl)methanone hydrochloride], the IC50 came to 2300 nM in assay [1] (Homo sapiens, HCT-116, 48 h) and 1300 nM in assay [2].

Turning to `Cc1cc(C(=O)N2CCN(c3cccc(Cl)c3)CC2)n(-c2ccc(F)cc2)n1` [3/38], the IC50 stood at 338 nM in assay [1] (Homo sapiens, HCT-116, 48 h) and 6000 nM in assay [2].

For `Cc1cc(C(=O)N2CCN(c3cccc(Cl)c3)CC2)n(-c2cccc(Cl)c2)n1` [3/34], the IC50 was 526 nM in assay [1] (Homo sapiens, HCT-116, 48 h) and 2500 nM in assay [2].

In the case of `Cc1cccc(N2CCN(C(=O)c3cc(C)nn3-c3ccccc3)CC2)c1` [3/11], the IC50 is 36 nM in assay [1] (Homo sapiens, HCT-116, 48 h) and 3000 nM in assay [2].

Regarding `Cc1cc(C(=O)N2CCN(c3ccccc3C)CC2)n(-c2ccc(F)cc2)n1` [3/147], the IC50 in assay [1] (Homo sapiens, HCT-116, 48 h) came out at 1290 nM; in assay [2], 7000 nM.

As to `Cc1cc(C(=O)N2CCN(c3ccc(Cl)c(Cl)c3)CC2)n(-c2cccc(Cl)c2)n1` [3/65], the IC50 was found to be 73 nM in assay [1] (Homo sapiens, HCT-116, 48 h) and 1300 nM in assay [2].

In the case of `CCc1ccccc1N1CCN(C(=O)c2cc(C)nn2-c2ccc(F)cc2)CC1` [3/104], the IC50 was determined as 285 nM in assay [1] (Homo sapiens, HCT-116, 48 h) and 5000 nM in assay [2].

Take `O=C(c1cccn1-c1ccccc1)N1CCN(c2cccnc2)CC1` [Example E46, (1-Phenyl-1H-pyrrol-2-yl)[4-(pyrid-3-yl)piperazin-1-yl]methanone hydrochloride]: the IC50 in assay [1] (Homo sapiens, HCT-116, 48 h) stood at 1240 nM; in assay [2], 14500 nM.

Turning to `CCOC(=O)c1cccc(N2CCN(C(=O)c3cc(C)nn3-c3ccccc3)CC2)c1` [Example E28, ethyl ester of 3-[4-(5-methyl-2-phenyl-2H-pyrazole-3-carbonyl)piperazin-1-yl]benzoic acid], the IC50 in assay [1] (Homo sapiens, HCT-116, 48 h) was determined as 60.6 nM; in assay [2] it was 3400 nM.

With `Cc1cc(C(=O)N2CCN(c3ccccc3C(F)(F)F)CC2)n(-c2ccccc2)n1` [3/84], the IC50 in assay [1] (Homo sapiens, HCT-116, 48 h) amounted to 176 nM; in assay [2], 5500 nM.

For the molecule `Cc1cc(C(=O)N2CCN(c3cccc(C(F)(F)F)c3)CC2)n(-c2ccc(F)cc2)n1` [3/23], the IC50 came to 434 nM in assay [1] (Homo sapiens, HCT-116, 48 h) and 3000 nM in assay [2].

As for `COc1ccccc1N1CCN(C(=O)c2cc(C)nn2-c2ccccc2F)CC1` [3/144], in assay [1], the IC50 came out at 255 nM.

For `COc1cccc(N2CCN(C(=O)c3cc(C)nn3-c3cccc(C)c3)CC2)c1` [3/49], the IC50 in assay [1] (Homo sapiens, HCT-116, 48 h) amounted to 7.9 nM; in assay [2], 1000 nM.

Regarding `COc1cc(OC)cc(N2CCN(C(=O)c3cc(NCc4ccccc4)nn3-c3ccccc3)CC2)c1` [Example E98, (5-Benzylamino-2-phenyl-2H-pyrazol-3-yl)[4-(3,5-dimethoxyphenyl)piperazin-1-yl]methanone], the IC50 in assay [1] (Homo sapiens, HCT-116, 48 h) stood at 223 nM; in assay [2], 1400 nM.

With `COc1ccc(-n2nc(C)cc2C(=O)N2CCN(c3cccc(Cl)c3)CC2)cc1` [3/39], in assay [1] (Homo sapiens, HCT-116, 48 h), the IC50 turned out to be 734 nM.

On to `Cc1cc(C(=O)N2CCN(c3ccc(C(F)(F)F)cc3)CC2)n(-c2cccc(Cl)c2)n1` [3/126], for which the IC50 in assay [1] (Homo sapiens, HCT-116, 48 h) was 8740 nM.

As to `COc1ccccc1N1CCN(C(=O)c2cc(C)nn2-c2ccccc2F)CC1` [3/85], the IC50 in assay [1] (Homo sapiens, HCT-116, 48 h) worked out at 189 nM.

Turning to `COc1cccc(-n2nc(C)cc2C(=O)N2CCN(c3ccc(C)c(C)c3)CC2)c1` [3/2], the IC50 in assay [1] (Homo sapiens, HCT-116, 48 h) is 312 nM.

In the case of `Cc1cc(C(=O)N2CCN(c3ccc(Cl)c(Cl)c3)CC2)n(-c2ccccc2)n1` [3/110], the IC50 in assay [1] (Homo sapiens, HCT-116, 48 h) came to 299 nM.

Turning to `COC(=O)CCC(=O)Nc1cccc(N2CCN(C(=O)c3cc(C)nn3-c3ccccc3)CC2)c1` [Example E83, Methyl N-{3-[4-(5-methyl-2-phenyl-2H-pyrazole-3-carbonyl)piperazin-1-yl]-phenyl}succinamate], the IC50 in assay [2] is 20000 nM.

Regarding `COc1ccccc1N1CCN(C(=O)c2cc(C)nn2-c2ccc(C)cc2)CC1` [3/130], in assay [2], the IC50 was < 25000 nM.

For `C=CCNc1cc(C(=O)N2CCN(c3cc(OC)cc(OC)c3)CC2)n(-c2ccccc2)n1` [Example E130, (5-Allylamino-2-phenyl-2H-pyrazol-3-yl)[4-(3,5-dimethoxyphenyl)piperazin-1-yl]methanone], the IC50 in assay [2] was determined as 1500 nM.

As for `Cc1cc(C(=O)N2CCN(c3ccccn3)CC2)n(-c2ccccc2)n1` [3/107], in assay [2], the IC50 was found to be 12500 nM.

`Cc1cc(C(=O)N2CCN(c3ccc4c(c3)OCCO4)CC2)n(-c2cccc(F)c2)n1` [3/100]: the IC50 in assay [2] was < 25000 nM.

The values are drawn from patent publication US20050130989A1, “N-arylheteroaromatic products compositions containing them and use thereof” (Aventis Pharma S. A., priority 2003, published 2005).
